Test results from patent US12545673B2, “Imidazopyridine derivative and pharmaceutical composition comprising same as active ingredient” (TSD LIFE SCIENCES CO., LTD., priority 2019, dated 2026).
Like-named read-outs stand apart in the source and are kept apart here.

What was measured:
LRRK2 wild-type = LRRK2 wild-type (Homo sapiens (Human), UniProt Q5S007); assay: Evaluation of inhibitory activity against LRRK2 (affinity bead competition binding), wild-type; conditions: read-out: Residual active values (%) LRRK2; for remaining binding at 0.1 µM: 100 nM; for remaining binding at 0.5 µM: 500 nM
Method: (§1) In order to identify the activity inhibitory effect on the LRRK2 wild-type and LRRK2 mutant (G2019S) kinase of the example compound according to the present disclosure, BL21-derived E. coli bacteria (E. coli) were cultured in a 24-well plate until the growth phase (log phase). After culturing, T7 phage tagged with LRRK2 wild-type or LRRK2 mutant (G2019S) was used to infect the multiplicity of infection (MOI) at 0.4. Thereafter, the E. coli bacteria were stirred at 32° C. for 90 to 150 minutes to allow dissolution. The lysate of E. coli bacteria was centrifuged (6,000×g) and filtered (0.2 μm), and the obtained tagged T7 phage […] a DNA-tagged kinase protein (LRRK2 or LRRK2 G2019S) was obtained.
(§2) After blocking the biotinylated ligand with extra biotin, it is washed with Pierce's buffer, SeaBlock (1% BSA, 0.05% Tween 20, 1 mM DTT) to remove unbound ligand and reduce non-specific binding.
(§3) The compound was prepared at a concentration of 40× in 100% DMSO and used after dilution, and all binding reactions were performed in a final volume of 0.02 ml in a 384-well plate.
(§4) The activity inhibitory effect on the LRRK2 wild-type and LRRK2 mutant (G2019S) kinases of the example compounds according to the present disclosure was measured and shown in Table 10 below.

α-SMA = assay: Fibrosis inhibition evaluation 2, palmitic acid-induced HepG2, real-time PCR, α-SMA; conditions: palmitic acid-induced HepG2 (Table 8)
MLK3 = MLK3 (Homo sapiens (Human), UniProt Q16584); assay: Evaluation of inhibitory activity of enzyme units, MLK3 ([γ-33P]-ATP filter assay); conditions: read-out: IC50(nM) MLK3
[1] = system: acute myeloid leukemia cell line U937; assay: Cancer cell proliferation inhibitory activity evaluation 2 (CCK-8), U937; assay type: cell-based; conditions: Homo sapiens, read-out: Cancer cell proliferation inhibitory activity U937
TGF-β1 = assay: Fibrosis inhibition evaluation 2, palmitic acid-induced HepG2, real-time PCR, TGF-β1
[2] = system: acute lymphoblastic leukemia cell line Jurkat; assay: Cancer cell proliferation inhibitory activity evaluation 2 (CCK-8), Jurkat; assay type: cell-based; conditions: Homo sapiens
Fibronectin-1 = assay: Fibrosis inhibition evaluation 2, palmitic acid-induced HepG2, real-time PCR, Fibronectin-1
LRRK2 mutant (G2019S) = LRRK2 mutant (G2019S) (Homo sapiens (Human), UniProt Q5S007, G2019S); assay: Evaluation of inhibitory activity against LRRK2 (affinity bead competition binding), G2019S mutant; conditions: read-out: Residual active values (%) LRRK2(G2019S); for remaining binding at 0.1 µM: 100 nM; for remaining binding at 0.5 µM: 500 nM
Method: as §1, §2, §3, §4

[3] = system: gastric cancer cell line AGS; assay: Cancer cell proliferation inhibitory activity evaluation 2 (CCK-8), AGS; assay type: cell-based; conditions: Homo sapiens, read-out: Cancer cell proliferation inhibitory activity AGS
[4] = system: gastric cancer cell line Hs746T; assay: Cancer cell proliferation inhibitory activity evaluation 2 (CCK-8), Hs746T; assay type: cell-based; conditions: Homo sapiens
[5] = system: human lung cancer cell line A549; assay: Cancer cell proliferation inhibitory activity evaluation 2 (CCK-8), A549; assay type: cell-based
MLK1 = MLK1 (Homo sapiens (Human), UniProt P80192); assay: Evaluation of inhibitory activity of enzyme units, MLK1 ([γ-33P]-ATP filter assay); assay type: biochemical
MLK2 = MLK2 (Homo sapiens (Human), UniProt Q02779); assay: Evaluation of inhibitory activity of enzyme units, MLK2 ([γ-33P]-ATP filter assay); assay type: biochemical
[6] = 72 h, read-out: Cancer cell proliferation inhibitory activity Jurkat
[7] = U-937, 10 μM, 72 hours, CCK-8 (Table 3)
[8] = 10 μM, 72 hours, CCK-8, read-out: Cancer cell proliferation inhibitory activity Jurkat

Sequence of MLK2 (Q02779 whole entry, looked up): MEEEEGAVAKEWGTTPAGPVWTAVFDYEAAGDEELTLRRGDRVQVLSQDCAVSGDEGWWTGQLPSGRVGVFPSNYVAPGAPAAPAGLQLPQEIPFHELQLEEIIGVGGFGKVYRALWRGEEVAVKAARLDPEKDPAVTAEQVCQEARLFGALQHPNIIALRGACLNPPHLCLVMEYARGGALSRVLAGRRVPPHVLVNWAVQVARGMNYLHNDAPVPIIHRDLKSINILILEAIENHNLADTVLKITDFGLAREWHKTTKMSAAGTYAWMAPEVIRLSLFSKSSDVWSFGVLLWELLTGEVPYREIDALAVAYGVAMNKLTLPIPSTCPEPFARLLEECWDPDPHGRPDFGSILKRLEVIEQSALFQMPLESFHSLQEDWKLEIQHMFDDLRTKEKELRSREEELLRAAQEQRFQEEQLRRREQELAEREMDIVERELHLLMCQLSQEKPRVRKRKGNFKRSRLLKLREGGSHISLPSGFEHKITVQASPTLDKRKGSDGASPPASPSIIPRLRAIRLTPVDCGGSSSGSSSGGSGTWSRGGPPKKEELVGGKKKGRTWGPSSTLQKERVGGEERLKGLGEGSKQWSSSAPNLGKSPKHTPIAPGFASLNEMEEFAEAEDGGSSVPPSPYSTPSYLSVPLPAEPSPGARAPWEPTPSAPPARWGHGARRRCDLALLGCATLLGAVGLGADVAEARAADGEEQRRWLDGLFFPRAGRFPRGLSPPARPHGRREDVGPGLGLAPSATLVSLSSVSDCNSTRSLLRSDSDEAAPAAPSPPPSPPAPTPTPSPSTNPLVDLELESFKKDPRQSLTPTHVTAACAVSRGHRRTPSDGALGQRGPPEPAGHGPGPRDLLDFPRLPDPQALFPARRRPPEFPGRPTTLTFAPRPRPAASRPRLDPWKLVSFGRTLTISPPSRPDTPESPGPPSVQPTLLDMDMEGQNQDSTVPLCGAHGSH
Sequence of LRRK2 wild-type (Q5S007 whole entry, looked up): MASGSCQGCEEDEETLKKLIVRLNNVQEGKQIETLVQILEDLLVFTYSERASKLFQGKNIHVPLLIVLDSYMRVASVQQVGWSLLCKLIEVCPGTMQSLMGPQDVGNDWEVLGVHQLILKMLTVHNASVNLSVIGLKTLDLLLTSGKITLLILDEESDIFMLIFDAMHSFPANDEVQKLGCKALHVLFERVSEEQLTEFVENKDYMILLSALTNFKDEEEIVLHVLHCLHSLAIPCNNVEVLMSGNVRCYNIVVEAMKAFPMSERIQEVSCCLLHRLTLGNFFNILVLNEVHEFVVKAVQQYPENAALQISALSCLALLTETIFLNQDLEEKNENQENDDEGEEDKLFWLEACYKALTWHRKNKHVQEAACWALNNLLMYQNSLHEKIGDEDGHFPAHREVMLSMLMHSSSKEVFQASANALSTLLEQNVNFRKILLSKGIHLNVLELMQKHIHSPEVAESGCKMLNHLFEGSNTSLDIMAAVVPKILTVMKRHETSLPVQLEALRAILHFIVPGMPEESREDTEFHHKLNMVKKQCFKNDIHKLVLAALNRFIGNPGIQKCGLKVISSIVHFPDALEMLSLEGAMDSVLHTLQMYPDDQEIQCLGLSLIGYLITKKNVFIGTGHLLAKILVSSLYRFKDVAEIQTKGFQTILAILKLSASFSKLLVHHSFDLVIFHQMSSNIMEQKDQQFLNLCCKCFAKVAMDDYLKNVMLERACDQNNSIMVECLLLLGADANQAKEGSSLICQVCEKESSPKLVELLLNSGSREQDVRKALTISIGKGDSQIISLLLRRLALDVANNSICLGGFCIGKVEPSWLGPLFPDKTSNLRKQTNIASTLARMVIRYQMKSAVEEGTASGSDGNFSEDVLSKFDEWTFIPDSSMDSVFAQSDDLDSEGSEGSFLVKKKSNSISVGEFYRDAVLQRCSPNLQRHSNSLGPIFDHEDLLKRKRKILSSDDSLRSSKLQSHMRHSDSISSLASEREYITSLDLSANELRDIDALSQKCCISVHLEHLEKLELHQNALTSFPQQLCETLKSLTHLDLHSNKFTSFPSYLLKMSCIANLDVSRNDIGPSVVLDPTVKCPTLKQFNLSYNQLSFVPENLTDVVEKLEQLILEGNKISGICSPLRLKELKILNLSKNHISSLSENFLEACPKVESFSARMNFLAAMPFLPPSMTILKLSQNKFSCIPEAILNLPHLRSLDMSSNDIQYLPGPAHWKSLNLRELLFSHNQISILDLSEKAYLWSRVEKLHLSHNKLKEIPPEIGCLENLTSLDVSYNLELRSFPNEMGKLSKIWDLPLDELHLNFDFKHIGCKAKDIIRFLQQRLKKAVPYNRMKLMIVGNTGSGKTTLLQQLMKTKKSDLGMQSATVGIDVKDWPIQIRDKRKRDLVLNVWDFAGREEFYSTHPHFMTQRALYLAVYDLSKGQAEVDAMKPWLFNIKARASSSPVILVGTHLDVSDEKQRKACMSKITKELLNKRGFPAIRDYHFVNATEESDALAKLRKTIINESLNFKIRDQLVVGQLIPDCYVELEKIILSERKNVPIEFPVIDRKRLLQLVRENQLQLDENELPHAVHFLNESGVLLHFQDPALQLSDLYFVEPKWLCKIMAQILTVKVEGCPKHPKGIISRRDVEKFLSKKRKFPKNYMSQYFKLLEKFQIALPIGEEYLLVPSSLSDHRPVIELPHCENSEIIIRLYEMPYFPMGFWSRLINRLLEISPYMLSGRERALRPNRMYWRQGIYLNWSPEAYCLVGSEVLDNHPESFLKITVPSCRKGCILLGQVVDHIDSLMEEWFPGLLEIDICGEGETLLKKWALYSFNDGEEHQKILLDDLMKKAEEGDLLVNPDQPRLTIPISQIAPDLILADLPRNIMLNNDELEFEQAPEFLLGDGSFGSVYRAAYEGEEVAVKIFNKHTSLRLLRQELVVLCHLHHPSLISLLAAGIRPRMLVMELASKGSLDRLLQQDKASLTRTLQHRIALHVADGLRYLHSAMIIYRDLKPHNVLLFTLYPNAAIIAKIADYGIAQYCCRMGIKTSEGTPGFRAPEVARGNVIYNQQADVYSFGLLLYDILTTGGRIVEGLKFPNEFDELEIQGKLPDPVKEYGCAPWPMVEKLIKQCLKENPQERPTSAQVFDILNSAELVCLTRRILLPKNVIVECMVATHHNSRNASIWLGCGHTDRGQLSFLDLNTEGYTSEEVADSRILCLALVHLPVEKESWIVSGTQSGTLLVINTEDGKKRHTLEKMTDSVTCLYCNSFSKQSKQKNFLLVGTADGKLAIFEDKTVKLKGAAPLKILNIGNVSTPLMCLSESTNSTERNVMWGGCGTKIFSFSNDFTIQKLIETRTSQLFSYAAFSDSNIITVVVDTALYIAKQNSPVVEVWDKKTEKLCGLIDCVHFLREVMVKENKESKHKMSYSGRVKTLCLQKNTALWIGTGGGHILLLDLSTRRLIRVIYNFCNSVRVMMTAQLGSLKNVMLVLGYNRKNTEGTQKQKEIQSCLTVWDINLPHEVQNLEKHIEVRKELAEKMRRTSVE
Sequence of LRRK2 mutant (G2019S) (Q5S007 whole entry G2019S, looked up): as the sequence (Q5S007 whole entry, looked up) above, with G2019S counted along it
Sequence of MLK1 (P80192 whole entry, looked up): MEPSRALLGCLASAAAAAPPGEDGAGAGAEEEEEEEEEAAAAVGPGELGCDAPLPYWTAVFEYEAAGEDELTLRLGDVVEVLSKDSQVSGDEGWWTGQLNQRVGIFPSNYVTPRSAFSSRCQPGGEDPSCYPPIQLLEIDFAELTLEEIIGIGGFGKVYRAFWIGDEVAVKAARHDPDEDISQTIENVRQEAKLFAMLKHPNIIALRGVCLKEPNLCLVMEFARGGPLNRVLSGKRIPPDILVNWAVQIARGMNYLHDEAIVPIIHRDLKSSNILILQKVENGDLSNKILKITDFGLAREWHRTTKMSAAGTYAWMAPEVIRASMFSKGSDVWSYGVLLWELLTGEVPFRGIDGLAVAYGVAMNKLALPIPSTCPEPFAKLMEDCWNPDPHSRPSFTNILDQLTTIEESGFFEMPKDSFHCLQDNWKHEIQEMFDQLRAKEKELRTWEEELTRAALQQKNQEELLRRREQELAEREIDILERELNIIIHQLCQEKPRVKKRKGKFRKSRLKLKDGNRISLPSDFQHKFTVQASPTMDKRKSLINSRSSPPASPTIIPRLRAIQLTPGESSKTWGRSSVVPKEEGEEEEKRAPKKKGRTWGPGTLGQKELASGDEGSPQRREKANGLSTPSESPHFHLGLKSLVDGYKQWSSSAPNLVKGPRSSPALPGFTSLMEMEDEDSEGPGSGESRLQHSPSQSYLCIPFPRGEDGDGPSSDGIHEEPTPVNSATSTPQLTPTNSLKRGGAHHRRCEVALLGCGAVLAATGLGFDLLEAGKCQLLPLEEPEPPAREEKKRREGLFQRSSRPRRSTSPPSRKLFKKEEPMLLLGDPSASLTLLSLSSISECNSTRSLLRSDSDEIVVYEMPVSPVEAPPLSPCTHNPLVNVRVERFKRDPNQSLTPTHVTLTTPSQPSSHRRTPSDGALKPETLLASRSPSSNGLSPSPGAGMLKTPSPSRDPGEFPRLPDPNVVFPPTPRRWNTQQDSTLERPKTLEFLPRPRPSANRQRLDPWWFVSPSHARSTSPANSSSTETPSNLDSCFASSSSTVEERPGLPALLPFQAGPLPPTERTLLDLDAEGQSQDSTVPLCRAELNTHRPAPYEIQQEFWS

Structure (SMILES) | remaining binding at 0.1 µM (LRRK2 wild-type) | remaining binding at 0.5 µM (LRRK2 wild-type) | Relative degree of expression inhibition (%) α-SMA (α-SMA) | IC50 (MLK3) | inhibition at 10 µM ([1]; U-937, 72 h) | Relative degree of expression inhibition (%) TGF-β1 (TGF-β1) | inhibition at 10 µM [2, 6] | Relative degree of expression inhibition (%) Fibronectin-1 (Fibronectin-1) | remaining binding at 0.1 µM (LRRK2 mutant (G2019S)) | remaining binding at 0.5 µM (LRRK2 mutant (G2019S)) | inhibition at 10 µM ([3]; 72 h) | inhibition at 10 µM ([4]; 72 h, read-out: Cancer cell proliferation inhibitory activity Hs746T) | inhibition at 10 µM ([5]; A549, 72 h, read-out: Cancer cell proliferation inhibitory activity A549) | IC50 (MLK1) | IC50 (MLK2) | inhibition at 10 µM [1, 7] | inhibition at 10 µM [2, 8] | inhibition at 10 µM ([3]; 10 μM, 72 hours, CCK-8) | inhibition at 10 µM ([4]; 10 μM, 72 hours, CCK-8, read-out: Cancer cell proliferation inhibitory activity Hs746T) | inhibition at 10 µM ([5]; A549, 10 μM, 72 hours, CCK-8, read-out: Cancer cell proliferation inhibitory activity A549)
CCS(=O)(=O)N1CC[C@H](Nc2c(Br)cnc3[nH]c(-c4cc(C)n(-c5cccc(S(=O)(=O)N6CCOCC6)c5)c4C)nc23)C1 [Example 11, (S)-6-bromo-2-(2,5-dimethyl-1-(3-(morpholinosulfonyl)phenyl)-1H-pyrrol-3-yl)-N-(1-(ethylsulfonyl)pyrrolidine-3-yl)-3H-imidazo[4,5-b]pyridine-7-amine] | 28% | 6.9% | 24.73% | 7 nM | 10 to 50% | 99.40% | > 50% | 86.85% | 7.9% | 1.7% | > 50% | – | – | – | – | – | – | – | – | –
CCS(=O)(=O)N1CC[C@H](Nc2c(Br)cnc3nc(-c4cc(C)n(-c5cccc(S(=O)(=O)NC)c5)c4C)[nH]c23)C1 [Example 18, (S)-3-(3-(6-bromo-7-((1-(ethylsulfonyl)pyrrolidine-3-yl)amino)-1H-imidazo[4,5-b]pyridine-2-yl)-2,5-dimethyl-1H-pyrrol-1-yl)-N-methylbenzenesulfonamide] | – | – | – | 13 nM | – | – | – | – | – | – | > 50% | 10 to 50% | 10 to 50% | 75 nM | 109 nM | – | – | – | – | –
CCS(=O)(=O)N1CC[C@H](Nc2c(Br)cnc3nc(-c4cc(C)n(-c5cccc(C(N)=O)c5)c4C)[nH]c23)C1 [Example 20, (S)-3-(3-(6-bromo-7-((1-(ethylsulfonyl)pyrrolidine-3-yl)amino)-1H-imidazo[4,5-b]pyridine-2-yl)-2,5-dimethyl-1H-pyrrol-1-yl)benzamide] | – | – | – | 14 nM | < 10% | – | 10 to 50% | – | – | – | 10 to 50% | – | – | 31 nM | 217 nM | – | – | – | – | –
CCS(=O)(=O)N1CC[C@H](Nc2c(Br)cnc3nc(-c4cc(C)n(-c5cccc(OCCOC)c5)c4C)[nH]c23)C1 [Example 21, (S)-6-bromo-N-(1-(ethylsulfonyl)pyrrolidine-3-yl)-2-(1-(3-(2-methoxyethoxy)phenyl)-2,5-dimethyl-1H-pyrrol-3-yl)-1H-imidazo[4,5-b]pyridine-7-amine] | – | – | – | 15 nM | 10 to 50% | – | 10 to 50% | – | – | – | > 50% | – | – | 75 nM | 243 nM | – | – | – | – | –
CCS(=O)(=O)N1CC[C@H](Nc2c(Br)cnc3nc(-c4cc(C)n(-c5ccc(S(N)(=O)=O)cc5)c4C)[nH]c23)C1 [Example 24, (S)-4-(3-(6-bromo-7-((1-(ethylsulfonyl)pyrrolidine-3-yl)amino)-1H-imidazo[4,5-b]pyridine-2-yl)-2,5-dimethyl-1H-pyrrol-1-yl)benzenesulfonamide] | – | – | – | 20 nM | 10 to 50% | – | 10 to 50% | – | – | – | 10 to 50% | – | – | 29 nM | 95 nM | – | – | – | – | –
CCS(=O)(=O)N1CC[C@H](Nc2c(Br)cnc3[nH]c(-c4cc(C)n(-c5ccccc5)c4C)nc23)C1 [Example 25, (S)-6-bromo-2-(2,5-dimethyl-1-phenyl-1H-pyrrol-3-yl)-N-(1-(ethylsulfonyl)pyrrolidine-3-yl)-3H-imidazo[4,5-b]pyridine-7-amine] | 49% | 17% | – | 26 nM | – | – | – | – | 15% | 3.3% | – | – | – | 71 nM | 250 nM | 10 to 50% | > 50% | > 50% | – | –
Cc1cc(-c2nc3c(Nc4cccc(S(N)(=O)=O)c4)c(Br)cnc3[nH]2)c(C)n1-c1ccc(C(=O)N2CCOCC2)cc1 [Example 27, 3-((6-bromo-2-(2,5-dimethyl-1-(4-(morpholine-4-carbonyl)phenyl)-1H-pyrrol-3-yl)-3H-imidazo[4,5-b]pyridine-7-yl)amino)benzenesulfonamide] | – | – | – | 20 nM | – | – | – | – | – | – | – | – | – | 176 nM | 178 nM | < 10% | < 10% | 10 to 50% | – | –
Cc1cc(-c2nc3c(Nc4cccc(S(N)(=O)=O)c4)c(Br)cnc3[nH]2)c(C)n1-c1cc(S(N)(=O)=O)ccc1Cl [Example 36, 3-(3-(6-bromo-7-((3-sulfamoylphenyl)amino)-3H-imidazo[4,5-b]pyridine-2-yl)-2,5-dimethyl-1H-pyrrole-1-yl)-4-chlorobenzenesulfonamide] | – | – | 79.46% | 46 nM | – | 66.72% | – | 82.94% | – | – | – | – | – | – | – | < 10% | < 10% | < 10% | – | –
CCS(=O)(=O)N1CC[C@H](Nc2ccnc3nc(-c4cc(C)n(-c5ccc(OCCN6CCOCC6)cc5)c4C)[nH]c23)C1 [Example 53, (S)-2-(2,5-dimethyl-1-(4-(2-morpholinoethoxy)phenyl)-1H-pyrrol-3-yl)-N-(1-(ethylsulfonyl)pyrrolidine-3-yl)-1H-imidazo[4,5-b]pyridine-7-amine] | – | – | 74.74% | 23200 nM | – | 33.15% | – | 69.92% | – | – | – | – | – | 10600 nM | – | – | – | – | – | –
CCS(=O)(=O)N1CC[C@H](Nc2c(Br)cnc3[nH]c(-c4cc(C)n(-c5cccc(C(=O)O)c5)c4C)nc23)C1 [Example 58, (S)-3-(3-(6-bromo-7-((1-(ethylsulfonyl)pyrrolidine-3-yl)amino)-3H-imidazo[4,5-b]pyridine-2-yl)-2,5-dimethyl-1H-pyrrol-1-yl)benzoic acid] | 5% | 0.7% | 66.53% | 53 nM | – | 48.93% | – | 69.83% | 1.4% | 0.2% | – | – | – | – | – | < 10% | < 10% | < 10% | < 10% | < 10%
CCS(=O)(=O)N1CC[C@H](Nc2c(Br)cnc3nc(-c4cc(C)n(-c5cc(NC(=O)CN6CCN(C)CC6)ccc5C)c4C)[nH]c23)C1 [Example 76, N-(3-(3-(6-bromo-7-(((S)-1-(ethylsulfonyl)pyrrolidine-3-yl)amino)-1H-imidazo[4,5-b]pyridine-2-yl)-2,5-dimethyl-1H-pyrrol-1-yl)-4-methylphenyl)-2-(4-methylpiperazine-1-yl) acetamide] | 3.6% | 1.1% | 69.54% | 63 nM | – | 121.79% | – | 93.95% | 0.9% | 0.1% | – | – | – | – | – | – | – | – | – | –
